# Tests used:
# [1] = tested on: nitrosative stress; assay: Nitrosative stress (protein nitration, 3-NT antibody) in yeast synucleinopathy model; assay type: cell-based
# [2] = tested on: α-syn; assay: Yeast growth rescue from α-syn toxicity (dose-response); assay type: cell-based
# Description: For galactose-induction experiments, overnight cultures were grown in CSM/2% glucose to saturation and diluted 1:20 into CSM/2% raffinose for ˜2 generations. Cultures were then diluted into CSM/2% galactose at an optimum OD600 for the experiment (see ‘Growth assays’).
# Source plates were assembled in 96 well plates using multichannel pipettes to dilute rows in 1.6-fold serial dilutions of CSMGal. […] For α-syn, the final starting OD600 was 0.02. Drug concentration ranges varied depending on efficacy, growth inhibition, and solubility in media. A Tecan EvoFreedom liquid handling robot was then used to transfer culture from 96 to 384 well format with each well being represented four times. Final well volume was 35 μL. Plates were then incubated in humidified containers at 30° C. for either 24 or 40 hours. Plates were then read with a Tecan Saphire plate reader at OD600.
# Raw OD600 values were transformed to “Relative Growth” in WT cells or “% Maximum Rescue” in α-syn experiments. In WT cells, the well background was subtracted and all values were then normalized to 100% for the untreated condition. In α-syn rescue experiments, the well background was subtracted and the maximum rescue in the particular experiment was normalized to 100%.
# [3] = biological target: T1, Nedd4 (Homo sapiens, UniProt P46934); conditions: pers. comm.; cited from earlier work
# T1 sequence (P46934 1-1319): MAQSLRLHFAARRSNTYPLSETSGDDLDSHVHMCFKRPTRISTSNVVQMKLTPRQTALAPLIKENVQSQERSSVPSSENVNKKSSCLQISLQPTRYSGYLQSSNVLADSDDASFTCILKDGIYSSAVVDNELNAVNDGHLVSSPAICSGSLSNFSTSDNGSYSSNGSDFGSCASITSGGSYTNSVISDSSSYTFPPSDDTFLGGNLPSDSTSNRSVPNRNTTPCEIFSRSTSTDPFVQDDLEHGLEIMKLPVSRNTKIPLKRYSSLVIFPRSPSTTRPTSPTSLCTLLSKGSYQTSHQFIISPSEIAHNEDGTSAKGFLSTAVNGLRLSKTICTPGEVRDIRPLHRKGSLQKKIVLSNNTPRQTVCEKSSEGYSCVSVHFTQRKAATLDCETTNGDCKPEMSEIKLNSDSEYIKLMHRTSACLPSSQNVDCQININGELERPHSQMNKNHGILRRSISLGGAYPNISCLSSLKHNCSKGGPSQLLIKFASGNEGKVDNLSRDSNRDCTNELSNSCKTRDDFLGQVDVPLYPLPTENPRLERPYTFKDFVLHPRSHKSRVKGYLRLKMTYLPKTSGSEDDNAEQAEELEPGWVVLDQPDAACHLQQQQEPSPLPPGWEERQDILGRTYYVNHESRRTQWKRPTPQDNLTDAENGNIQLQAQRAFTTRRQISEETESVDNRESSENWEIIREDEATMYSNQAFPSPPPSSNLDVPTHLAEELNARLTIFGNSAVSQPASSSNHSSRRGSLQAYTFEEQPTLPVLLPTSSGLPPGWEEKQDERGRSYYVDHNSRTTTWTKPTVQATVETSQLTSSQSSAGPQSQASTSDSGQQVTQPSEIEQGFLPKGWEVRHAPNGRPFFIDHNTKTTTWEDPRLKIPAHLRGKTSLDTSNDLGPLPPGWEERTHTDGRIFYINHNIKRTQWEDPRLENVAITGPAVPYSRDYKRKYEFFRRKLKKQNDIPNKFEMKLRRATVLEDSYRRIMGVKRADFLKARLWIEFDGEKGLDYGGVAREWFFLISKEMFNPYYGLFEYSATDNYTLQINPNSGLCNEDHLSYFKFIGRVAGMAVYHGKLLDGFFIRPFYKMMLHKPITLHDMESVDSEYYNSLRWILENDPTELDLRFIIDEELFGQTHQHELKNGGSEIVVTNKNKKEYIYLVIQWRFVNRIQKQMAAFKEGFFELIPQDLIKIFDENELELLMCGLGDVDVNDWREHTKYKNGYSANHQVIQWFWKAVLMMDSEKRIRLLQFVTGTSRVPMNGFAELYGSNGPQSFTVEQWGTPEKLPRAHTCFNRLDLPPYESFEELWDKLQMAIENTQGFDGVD
# [4] = tested on: aSyn^A53T iPS neurons; assay: Nitrosative stress (NO sensor FL2) in patient iPS neurons; conditions: human cortical neurons from iPSCs of a patient carrying α-syn mutations
# Description: Nitrosative stress was monitored by protein nitration levels using the 3-NT antibody. […] All data represented as mean±SEM (*: p<0.05; **: p<0.01, two tail t-test compared to control condition).
# [5] = tested on: FUS/TLS; assay: Yeast growth rescue, FUS/TLS proteinopathy model; assay type: cell-based
# Description: (A) Structure of lead compound ABI. (B) Dose-response curves showing the relative rescue of ABI (log2, μM) in five yeast proteinopathy models. Rescue is relative to a positive control compound as determined by growth (OD600). (C) Localization of α-syn-GFP in strains with increasing toxicity: NoTox, InTox, HiTox and HiTox treated with 10 μM ABI. […] (E) (Left panel) Western blot of α-syn-GFP in NoTox, InTox, and HiTox strains with anti-α-syn antibody. (Right panel) Quantitation of western blot (α-syn relative to total protein quantitated from a Coomassie gel and normalized to 100% for HiTo). **: P<0.01; and ***: P<0.001, according to one-way ANOVA and a Tukey's test.
# Yeast strains expressing toxic proteins have been described previously (6, 9, 33, 34) (Table 1). All strains have either single or multiple inserts for galactose-inducible expression. In addition, all stains have either deletions of the Δpdr1::KanMX and Δpdr3::KanMX or Δpdr5::KanMX to reduce efflux of compounds and required compound dosing. Yeast were cultured in complete synthetic media (CSM) and an appropriate dropout (minus HIS or URA) to maintain plasmids if required. […]
# Starting cultures for all dose-response assays were established as described above. […] Plates were then read with a Tecan Saphire plate reader at OD600.
smiles,measurement,setting,value
"Cc1cccc(-n2cnc3cc(C(=O)NCc4ccccc4Cl)ccc32)c1 [ABI, N-(2-chlorobenzyl)-1-(m-tolyl)-1H-benzo[d]imidazole-5-carboxamide]",nitrosative stress,[1],prevented the generation of highly localized nitrosative stress
same,growth-inhibitory concentration relative to EC50 in rescuing α-syn toxicity,[2],about four-fold
same,potency and efficacy against α-syn (rescue of growth),[2]; compared with TDP-43 model,much greater potency and efficacy
same,ubiquitination of recombinant Nedd4 in vitro,[3],did not enhance ubiquitination
same,nitrosative stress,[4],reduced nitrosative stress
same,melting point,,129 to 131 °C
same,efficacy against FUS/TLS,[5],"not, however, effective"

# — patent publication US9790188B2, “Benzimidazole derivatives and uses thereof” (Whitehead Institute for Biomedical Research, priority 2013, dated 2017)
